Numbered stars: 1 amine (or outer) side, 2 acyl side, 3 side chain; on linkers, the order of the positions; unused ones are H or OH. Peptide text beside a SMILES is read from it. * marks the point of attachment. C20 diacid = O=C(O)CCCCCCCCCCCCCCCCCCC(=O)*; C18 diacid = O=C(O)CCCCCCCCCCCCCCCCC(=O)*; γGlu = O=C(O)[C@H](CCC(=O)[*:2])N[*:1]
Columns and labels:
[1] = Solubility in 100 mM bistrispropane buffer at pH 8.0 incubated for 18 hrs by UPLC analysis; format: physicochemical
[2] = Solubility in 100 mM glycylglycine buffer at pH 4.0 incubated for 18 hrs by UPLC analysis; format: physicochemical
[3] = Solubility in 100 mM bistrispropane buffer at pH 7.5 incubated for 18 hrs by UPLC analysis; format: physicochemical
[4] = Solubility in 100 mM bistrispropane buffer at pH 6.5 incubated for 18 hrs by UPLC analysis; format: physicochemical
[5] = Solubility in 100 mM bistrispropane buffer at pH 6.0 incubated for 18 hrs by UPLC analysis; format: physicochemical
[6] = Stability in pH 7.5 buffer assessed as lag time for fibril formation at 1 uM by Thioflavin T based fluorescence assay; format: physicochemical; conditions: pH 7.5, 1 µM
[7] = Solubility in 100 mM glycylglycine buffer at pH 5.0 incubated for 18 hrs by UPLC analysis; format: physicochemical
[8] = Solubility in 100 mM glycylglycine buffer at pH 3.0 incubated for 18 hrs by UPLC analysis; format: physicochemical
[9] = Stability in pH 7.5 buffer assessed as compound recovery at 1 uM by Thioflavin T based fluorescence assay; format: physicochemical; conditions: read-out: Drug recovery
[10] = Solubility in 100 mM bistrispropane buffer at pH 7.0 incubated for 18 hrs by UPLC analysis; format: physicochemical
Rattus norvegicus [11] = assay: Reduction in food intake in Sprague-Dawley rat at 3 nmol/kg measured 24 to 48 hrs post dose relative to control; format: functional; set-up: scale not given: the % may be the effect or the level left
Calcitonin receptor [12] = target: T1, Calcitonin receptor (Homo sapiens, UniProt P30988); assay: Agonist activity at human calcitonin receptor expressed in BHK570 cells assessed as increase in intracellular cAMP concentration incubated for 3 hrs in presence of 10% FBS by CRE luciferase reporter gene assay; format: functional, cell-based
T1 sequence (P30988 whole entry): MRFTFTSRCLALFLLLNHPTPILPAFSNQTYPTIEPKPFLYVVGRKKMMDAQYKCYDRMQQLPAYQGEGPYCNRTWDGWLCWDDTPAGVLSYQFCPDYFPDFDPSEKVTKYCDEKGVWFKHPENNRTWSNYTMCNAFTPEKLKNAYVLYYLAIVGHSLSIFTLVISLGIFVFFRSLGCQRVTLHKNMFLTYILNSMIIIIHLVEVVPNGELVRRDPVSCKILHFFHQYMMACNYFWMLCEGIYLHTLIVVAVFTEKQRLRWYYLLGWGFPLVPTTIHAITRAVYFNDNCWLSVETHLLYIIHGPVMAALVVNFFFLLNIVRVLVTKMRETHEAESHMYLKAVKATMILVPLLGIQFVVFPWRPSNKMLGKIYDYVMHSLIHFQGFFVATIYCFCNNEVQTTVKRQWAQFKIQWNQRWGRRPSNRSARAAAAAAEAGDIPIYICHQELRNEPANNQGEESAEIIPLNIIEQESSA

Calcitonin receptor [13] = target: T1, Calcitonin receptor; assay: Agonist activity at human calcitonin receptor expressed in BHK570 cells assessed as increase in intracellular cAMP concentration incubated for 3 hrs in absence of albumin by CRE luciferase reporter gene assay; format: functional, cell-based
[14] = target: T2, Amylin receptor AMY3; CALCR/RAMP3 (Homo sapiens, UniProt O60896+P30988); assay: Agonist activity at human amylin receptor expressed in BHK570 cells co-expressing RAMP3 assessed as increase in intracellular cAMP concentration incubated for 3 hrs in presence of 10% FBS by CRE luciferase reporter gene assay; format: functional, cell-based
T2 sequence (P30988 whole entry): T1 sequence (P30988 whole entry)
T2 sequence (O60896 whole entry): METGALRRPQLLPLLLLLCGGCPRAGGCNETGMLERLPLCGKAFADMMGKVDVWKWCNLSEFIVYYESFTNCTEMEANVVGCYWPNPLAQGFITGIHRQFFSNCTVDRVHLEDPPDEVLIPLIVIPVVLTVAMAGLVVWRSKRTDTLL

Rattus norvegicus [15] = assay: Reduction in food intake in Sprague-Dawley rat at 3 nmol/kg measured 0 to 24 hrs post dose relative to control; format: functional; set-up: scale not given: the % may be the effect or the level left
[16] = target: T2, Amylin receptor AMY3; CALCR/RAMP3; assay: Displacement of [125I]-labeled rat amylin from human amylin receptor expressed in BHK tkts13 whole cells co-expressing RAMP3 incubated for 60 mins by scintillation proximity assay; format: cell-based
[17] = target: T2, Amylin receptor AMY3; CALCR/RAMP3; assay: Agonist activity at human amylin receptor expressed in BHK570 cells co-expressing RAMP3 assessed as increase in intracellular cAMP concentration incubated for 3 hrs in absence of albumin by CRE luciferase reporter gene assay; format: functional, cell-based

SMILES	solubility at 18 h [1] [µM]	solubility at 18 h [2] [µM]	solubility at 18 h [3] [µM]	solubility at 18 h [4] [µM]	solubility at 18 h [5] [µM]	Time [6] [h]	solubility at 18 h [7] [µM]	solubility at 18 h [8] [µM]	remaining at 1 µM [9] [%]	solubility at 18 h [10] [µM]	Activity (Rattus norvegicus [11]) [%]	EC50 (Calcitonin receptor [12]) [nM]	EC50 (Calcitonin receptor [13]) [nM]	EC50 [14] [nM]	Activity (Rattus norvegicus [15]) [%]	IC50 [16] [nM]	EC50 [17] [nM]
CC(C)C[C@H](NC(=O)[C@H](C)NC(=O)[C@H](C)NC(=O)[C@@H](NC(=O)[C@H](CO)NC(=O)[C@H](CC(C)C)NC(=O)[C@H](CCC(=O)O)NC(=O)[C@H](CO)NC(=O)[C@H](C)N)[C@@H](C)O)C(=O)NCC(=O)N[C@@H](CCCNC(=N)N)C(=O)N[C@@H](CC(C)C)C(=O)N[C@@H](CO)C(=O)N[C@@H](C)C(=O)N[C@@H](CCC(=O)O)C(=O)N[C@@H](CC(C)C)C(=O)N[C@@H](Cc1cnc[nH]1)C(=O)N[C@@H](CCC(=O)O)C(=O)N[C@@H](CC(C)C)C(=O)N[C@@H](C)C(=O)N[C@H](C(=O)N[C@@H](CC(C)C)C(=O)N1CCC[C@H]1C(=O)N[C@@H](CCCNC(=N)N)C(=O)N[C@H](C(=O)N[C@@H](CCCCNC(=O)CC[C@H](NC(=O)CCCCCCCCCCCCCCCCCCC(=O)O)C(=O)O)C(=O)N[C@H](C(=O)NCC(=O)N[C@@H](CO)C(=O)NCC(=O)N[C@@H](CO)C(=O)N1CCC[C@H]1C(N)=O)[C@@H](C)O)[C@@H](C)O)[C@@H](C)O	≥ 200	≥ 200	≥ 200	≥ 200	≥ 200	> 45	≥ 200	≥ 200	94	≥ 200							
CC(C)C[C@H](NC(=O)[C@H](C)NC(=O)[C@H](C)NC(=O)[C@@H](NC(=O)[C@H](CO)NC(=O)[C@H](CC(C)C)NC(=O)[C@H](CCC(=O)O)NC(=O)[C@H](CO)NC(=O)[C@H](C)NC(=O)CC[C@H](NC(=O)CCCCCCCCCCCCCCCCC(=O)O)C(=O)O)[C@@H](C)O)C(=O)NCC(=O)N[C@@H](CCCNC(=N)N)C(=O)N[C@@H](CC(C)C)C(=O)N[C@@H](CO)C(=O)N[C@@H](C)C(=O)N[C@@H](CCC(=O)O)C(=O)N[C@@H](CC(C)C)C(=O)N[C@@H](Cc1c[nH]cn1)C(=O)N[C@@H](CCC(=O)O)C(=O)N[C@@H](CC(C)C)C(=O)N[C@@H](C)C(=O)N[C@H](C(=O)N[C@@H](Cc1ccc(O)cc1)C(=O)N1CCC[C@H]1C(=O)N[C@@H](CCCNC(=N)N)C(=O)N[C@H](C(=O)N[C@@H](CCC(=O)O)C(=O)N[C@H](C(=O)NCC(=O)N[C@@H](CO)C(=O)NCC(=O)N[C@@H](CO)C(=O)N1CCC[C@H]1C(N)=O)[C@@H](C)O)[C@@H](C)O)[C@@H](C)O ({C18 diacid-γGlu}-ASELSTAALGRLSAELHELATYPRTETGSGSP-NH2)						> 45			100								
CC(C)C[C@H](NC(=O)[C@H](C)NC(=O)[C@H](C)NC(=O)[C@@H](NC(=O)[C@H](CO)NC(=O)[C@H](CC(C)C)NC(=O)[C@H](CCC(=O)O)NC(=O)[C@H](CO)NC(=O)[C@H](C)NC(=O)[C@H](CCC(=O)O)NC(=O)CCCCCCCCCCCCCCCCCCC(=O)O)[C@@H](C)O)C(=O)NCC(=O)N[C@@H](CCCNC(=N)N)C(=O)N[C@@H](CC(C)C)C(=O)N[C@@H](CO)C(=O)N[C@@H](C)C(=O)N[C@@H](CCC(=O)O)C(=O)N[C@@H](CC(C)C)C(=O)N[C@@H](Cc1cnc[nH]1)C(=O)N[C@@H](CCC(=O)O)C(=O)N[C@@H](CC(C)C)C(=O)N[C@@H](C)C(=O)N[C@H](C(=O)N[C@@H](CC(C)C)C(=O)N1CCC[C@H]1C(=O)N[C@@H](CCCNC(=N)N)C(=O)N[C@H](C(=O)N[C@@H](CCC(=O)O)C(=O)N[C@H](C(=O)NCC(=O)N[C@@H](CO)C(=O)NCC(=O)N[C@@H](CO)C(=O)N1CCC[C@H]1C(N)=O)[C@@H](C)O)[C@@H](C)O)[C@@H](C)O ({C20 diacid}-EASELSTAALGRLSAELHELATLPRTETGSGSP-NH2)	≥ 200	≥ 200	≥ 200	≥ 200	≥ 200		≥ 200	≥ 200		≥ 200	63.5	0.026	0.009	0.061	55.5	0.24	0.011
CC(C)C[C@H](NC(=O)CNC(=O)[C@H](CO)NC(=O)[C@H](CC(C)C)NC(=O)[C@H](CCC(=O)O)NC(=O)CC[C@H](NC(=O)CCCCCCCCCCCCCCCCCCC(=O)O)C(=O)O)C(=O)N[C@@H](CO)C(=O)N[C@H](C(=O)N[C@@H](CC(C)C)C(=O)N[C@H](C(=O)N[C@@H](CC(C)C)C(=O)NCC(=O)N[C@@H](CCCNC(=N)N)C(=O)N[C@@H](CC(C)C)C(=O)N[C@@H](CO)C(=O)N[C@@H](CCC(N)=O)C(=O)N[C@@H](CCC(=O)O)C(=O)N[C@@H](CC(C)C)C(=O)N[C@@H](Cc1cnc[nH]1)C(=O)N[C@@H](CCC(=O)O)C(=O)N[C@@H](CC(C)C)C(=O)N[C@@H](CCC(N)=O)C(=O)N[C@H](C(=O)N[C@@H](Cc1ccc(O)cc1)C(=O)N1CCC[C@H]1C(=O)N[C@@H](CCCNC(=N)N)C(=O)N[C@H](C(=O)NCC(=O)N[C@H](C(=O)NCC(=O)N[C@@H](CO)C(=O)NCC(=O)N[C@H](C(=O)N[C@@H](Cc1ccc(O)cc1)C(N)=O)[C@@H](C)O)[C@@H](C)O)[C@@H](C)O)[C@@H](C)O)C(C)C)[C@@H](C)O ({C20 diacid-γGlu}-ELSGLSTLVLGRLSQELHELQTYPRTGTGSGTY-NH2)		≥ 200						≥ 200			0			0.565	32	2.56	0.025
CC(C)C[C@H](NC(=O)[C@H](C)NC(=O)[C@H](C)NC(=O)[C@@H](NC(=O)[C@H](CO)NC(=O)[C@H](CC(C)C)NC(=O)[C@H](CCC(=O)O)NC(=O)[C@H](CO)NC(=O)[C@H](C)NC(=O)[C@H](CCC(=O)O)NC(=O)CCCCCCCCCCCCCCCCC(=O)O)[C@@H](C)O)C(=O)NCC(=O)N[C@@H](CCCNC(=N)N)C(=O)N[C@@H](CC(C)C)C(=O)N[C@@H](CO)C(=O)N[C@@H](C)C(=O)N[C@@H](CCC(=O)O)C(=O)N[C@@H](CC(C)C)C(=O)N[C@@H](Cc1cnc[nH]1)C(=O)N[C@@H](CCC(=O)O)C(=O)N[C@@H](CC(C)C)C(=O)N[C@@H](C)C(=O)N[C@H](C(=O)N[C@@H](CC(C)C)C(=O)N1CCC[C@H]1C(=O)N[C@@H](CCCNC(=N)N)C(=O)N[C@H](C(=O)N[C@@H](CCC(=O)O)C(=O)N[C@H](C(=O)NCC(=O)N[C@@H](CO)C(=O)NCC(=O)N[C@@H](CO)C(=O)N1CCC[C@H]1C(N)=O)[C@@H](C)O)[C@@H](C)O)[C@@H](C)O ({C18 diacid}-EASELSTAALGRLSAELHELATLPRTETGSGSP-NH2)	≥ 200	≥ 200	≥ 200	≥ 200	≥ 200		≥ 200	≥ 200		≥ 200	46	0.019	0.006	0.039	71	0.187	0.009

Reference: ChEMBL document CHEMBL4420076, “Amylin and calcitonin receptor agonist” (2017)
